Experimental data published in US20140046021A1, “SELF-MAGNETIC METAL-SALEN COMPLEX COMPOUND” (IHI CORPORATION, priority 2011, published 2014).

Experiment: magnetic field-magnetization curve measured with MPMS7 (Quantum Design)
Type: physicochemical
Conditions: 37 degrees Celsius (310 K)
From the text: Also, FIG. 8 is a graph showing the magnetic field-magnetization curves of the Mn salen complex, the Cr salen complex, and the Fe salen complex.

[Co+2].[O-]c1ccccc1C=NCCN=Cc1ccccc1[O-] [Co salen complex]
magnetism from magnetic field-magnetization curve: paramagnetic
